test system: not given; experiment: not given; settings: not given

Question: Which melting point does the source give for `CN1CCN(c2cccc3c2OC(C(=O)Nc2ccc(N4CCOCC4)cc2)CC3)CC1` (racemic) [Example 75, racemic-8-(4-Methyl-piperazin-1-yl)-chroman-2-carboxylic Acid (4-morpholin-4-yl-phenyl)-amide] here?
Answer: 215 to 216 °C

Question: Which melting point does the source give for `CN1CCN(c2cccc3c2OC(C(=O)Nc2ccc(N4CCOCC4)cc2)CC3=O)CC1` (racemic) [Example 78, racemic-8-(4-methyl-piperazin-1-yl)-4-oxo-chroman-2-carboxylic Acid (4-morpholin-4-yl-phenyl)-amide] here?
Answer: 215 to 216 °C

Question: For `CN1CCN(c2cccc3c2OC(C(=O)Nc2ccc(N4CCOCC4)cc2)CC3=O)CC1` (single isomer, unassigned) [Example 79, 8-(4-Methyl-piperazin-1-yl)-4-oxo-chroman-2-carboxylic acid (4-morpholin-4-yl-phenyl)-amide (Faster Running Isomer)], which melting point is on record?
Answer: 216 °C (dec.)

Question: With `CN1CCN(c2cccc3c2OC(C(=O)Nc2ccc(N4CCOCC4)cc2)CC3=O)CC1` (single isomer, unassigned) [Example 80, 8-(4-Methyl-piperazin-1-yl)-4-oxo-chroman-2-carboxylic Acid (4-morpholin-4-yl-phenyl)-amide (Slower Running Isomer)] as the compound, how does the melting point read?
Answer: 215 °C (dec.)

Question: With `CN1CCN(c2cccc3c2OC(C(=O)Nc2ccc(N4CCOCC4)cc2)CC3)CC1` (single isomer, unassigned; (+)) [Example 76, (+)-8-(4-Methyl-piperazin-1-yl)-chroman-2-carboxylic Acid (4-morpholin-4-yl-phenyl)-amide] as the compound, how does the melting point read?
Answer: 206 to 207 °C

Question: Which melting point does the source give for `CN1CCN(c2cccc3c2OC(C(=O)Nc2ccc(N4CCOCC4)cc2)CC3)CC1` (single isomer, unassigned; (-)) [Example 77, (−)-8-(4-Methyl-piperazin-1-yl)-chroman-2-carboxylic acid (4-morpholin-4-yl-phenyl)-amide] here?
Answer: 205.5 to 207 °C

Question: Which melting point does the source give for `CN1CCN(c2cccc3c(=O)cc(C(=O)Nc4ccc(N5CCOCC5)cc4)oc23)CC1` [Example 1, 8-(4-methyl-1-piperazinyl)-N-[4-(4-morpholinyl)phenyl]-4-oxo-4H-chromene-2-carboxamide] here?
Answer: 217 to 218 °C (dec.)

Question: With `CN1CCN(c2cccc3c(=O)cc(-c4nc5ccc(N6CCOCC6)cc5o4)oc23)CC1` [Example 21, 8-(4-Methyl-piperazin-1-yl)-2-(6-morpholin-4-yl-benzooxazol-2-yl)-chromen-4-one] as the compound, how does the melting point read?
Answer: 158.1 to 158.8 °C

Question: With `CN1CCN(c2cccc3c(=O)cc(C(=O)Nc4ccc(N5CCOCC5)cc4O)oc23)CC1` [Example 22, 8-(4-Methyl-piperazin-1-yl)-4-oxo-4H-chromene-2-carboxylic Acid (2-hydroxy-4-morpholin-4-yl-phenyl)-amide] as the compound, how does the melting point read?
Answer: 248.4 to 249.6 °C

Question: Which melting point does the source give for `CN1CCN(c2cccc3c(=O)cc(C(=O)N(C)c4ccc(N5CCOCC5)cc4)oc23)CC1` [Example 25, 8-(4-Methylpiperazin-1-yl)-4-oxo-4H-chromene-2-carboxylic Acid methyl-(4-morpholin-4-yl-phenyl)amide] here?
Answer: 245 to 246.8 °C

Question: With `COc1cc(N2CCN(C)CC2)c2oc(C(=O)Nc3ccc(N4CCOCC4)cc3)cc(=O)c2c1` [Example 31, 6-Methoxy-8-(4-methyl-piperazin-1-yl)-4-oxo-4H-chromene-2-carboxylic acid (4-morpholin-4-yl-phenyl)-amide] as the compound, how does the melting point read?
Answer: 234 to 236 °C

Question: Which melting point does the source give for `COc1cc(N2CCN(C)CC2)c2oc(C(=O)Nc3ccc(N4CCN(C(=O)CCO)CC4)cc3)cc(=O)c2c1` [Example 68, 6-Methoxy-8-(4-methyl-piperazin-1-yl)-4-oxo-4H-chromene-2-carboxylic acid {4-[4-(3-hydroxy-propanoyl)-piperazin-1-yl]-phenyl}-amide] here?
Answer: 195 to 197 °C

Question: For `CCS(=O)(=O)N1CCN(c2ccc(NC(=O)c3cc(=O)c4cc(F)cc(N5CCN(C)CC5)c4o3)cc2)CC1` [Example 71, 6-Fluoro-8-(4-methyl-piperazin-1-yl)-4-oxo-4H-chromene-2-carboxylic Acid [4-(4-ethane sulfonyl-piperazin-1-yl)-phenyl]-amide], which melting point is on record?
Answer: 233 to 234 °C

Question: For `CN1CCN(c2cc(F)cc3c(=O)cc(C(=O)Nc4ccc(N5CCN(C(=O)CCO)CC5)cc4)oc23)CC1` [Example 73, 6-Fluoro-8-(4-methyl-piperazin-1-yl)-4-oxo-4H-chromene-2-carboxylic acid {4-[4-(3-hydroxy-propanoyl)-piperazin-1-yl]-phenyl}-amide], which melting point is on record?
Answer: 195 to 199 °C

Question: Which melting point does the source give for `CCNC(=O)N1CCN(c2ccc(NC(=O)c3cc(=O)c4cc(F)cc(N5CCN(C)CC5)c4o3)cc2)CC1` [Example 81, 4-[4-({1-[6-Fluoro-8-(4-methyl-piperazin-1-yl)-4-oxo-4H-chromen-2-yl]-methanoyl}-amino)-phenyl]-piperazine-1-carboxylic Acid Ethylamide] here?
Answer: 236 to 238 °C

test system: Hartley guinea pigs; experiment: learned helplessness test in guinea pigs; format: in vivo; settings: guinea pig
Description: The utility of the compounds for example to treat depression may be shown via a learned helplessness test in guinea pigs, which is used extensively as correlative to antidepressant activity in humans. The learned helplessness test may be carried out as follows: Seventy male Hartley guinea pigs, each weighing about 350-425 gm are fed ad lib, and are housed under a 12-hour light/dark cycle. The procedure consists of two phases: The induction phase and the avoidance-training phase. In the induction phase, subjects are placed into standard shuttle cages (20 L×16 W×21 centimeters H) which are fitted with a grid floor. Electrical stimulation (1.25 mA, 10 sec duration) is delivered to the floor of the cage every 90-sec during 1 hour daily sessions. Subjects have no opportunity to escape or to avoid shocks. Induction is conducted for 2 consecutive days.
In avoidance training, testing is also conducted in the shuttle cages, except that the subjects are not returned to the same chamber in which induction had occurred. Additionally, all cages are fitted with a partition with an arch in the center of the cage, through which animals can pass between the left and right halves of the cage. The procedure employed is a standard shuttle avoidance procedure in which a compound, conditioned stimulus (a 10-sec presentation of a tone and turning on of a lamp on the side of the cage that the guinea pig was occupying) serves to indicate presentation of electrical current to the floor of the cage. Shock is presented for a 5 sec period, 5 sec after initiation of the conditioned stimulus. Entry into the opposite side of the shuttle cage via the arched partition prior to shock onset results in the end of the trial (avoidance response). If shock is delivered, entry into the opposite side of the cage results in termination of the shock and CS (escape). Reversal of learned helplessness in the induction subjects correlates to antidepressant activity of the test compound.
Avoidance training, 45-min in duration, is conducted on 2 consecutive days, beginning 48 hr after the final induction session. Seventy subjects are assigned to 1 of 6 groups of 11-12 animals. The groups are as follows: • 1) No induction group. The subjects are placed into the shuttle cages but are not given inescapable shock, the animals are subsequently trained in the avoidance procedure and the vehicle is administered; • 2) Induction vehicle control group; • 3) Imipramine 17.8 mg/kg; • 4) 0.3 mg/kg compounds; • 5) 1 mg/kg compounds; and • 6) 5 mg/kg compounds.
Groups 2-6 are given induction and avoidance training sessions. Injections are administered immediately following induction sessions and 1 hour prior to avoidance training sessions. […]

Question: With `COc1cc(N2CCN(C)CC2)c2oc(C(=O)Nc3ccc(N4CCOCC4)cc3)cc(=O)c2c1` [Example 31, 6-Methoxy-8-(4-methyl-piperazin-1-yl)-4-oxo-4H-chromene-2-carboxylic acid (4-morpholin-4-yl-phenyl)-amide] as the compound, how does the “activity in the learned helplessness assay for antidepressant/antianxiety activity” value read?
Answer: demonstrate activity

Question: With `CCC(=O)N1CCN(c2ccc(NC(=O)c3cc(=O)c4cc(OC)cc(N5CCN(C)CC5)c4o3)cc2)CC1` [Example 44, 6-Methoxy-8-(4-methyl-piperazin-1-yl)-4-oxo-4H-chromene-2-carboxylic Acid [4-(4-propionyl-piperazin-1-yl)-phenyl]-amide] as the compound, how does the “activity in the learned helplessness assay for antidepressant/antianxiety activity” value read?
Answer: demonstrate activity

Question: With `CCS(=O)(=O)N1CCN(c2ccc(NC(=O)c3cc(=O)c4cc(F)cc(N5CCN(C)CC5)c4o3)cc2)CC1` [Example 71, 6-Fluoro-8-(4-methyl-piperazin-1-yl)-4-oxo-4H-chromene-2-carboxylic Acid [4-(4-ethane sulfonyl-piperazin-1-yl)-phenyl]-amide] as the compound, how does the “activity in the learned helplessness assay for antidepressant/antianxiety activity” value read?
Answer: demonstrate activity

Question: With `CCC(=O)N1CCN(c2ccc(NC(=O)c3cc(=O)c4cc(F)cc(N5CCN(C)CC5)c4o3)cc2)CC1` [Example 72, 6-Fluoro-8-(4-methyl-piperazin-1-yl)-4-oxo-4H-chromene-2-carboxylic acid [4-(4-propionyl-piperazin-1-yl)-phenyl]-amide] as the compound, how does the “activity in the learned helplessness assay for antidepressant/antianxiety activity” value read?
Answer: demonstrate activity

biological target: 5-HT1B and 5HT1D receptors; experiment: not given; settings: guinea pig cortex membranes; "may result in a measurement of"; assay of Roberts et al.; read-out: Kd of the radioligand (saturation studies); cited from earlier work

Question: For `COc1ccc(NC(=O)c2ccc(-c3ccncc3)c(C)c2)cc1N1CCN(C)CC1` [[^3H]-GR125743], which Kd is on record?
Answer: 46 ± 4 pM

From patent publication US20050085457A1, “Therapeutic quinolone compounds with 5-ht-antagonistic properties” (priority 2001, published 2005)
